The values that follow come from US20110207751A1, “HETEROCYCLIC COMPOUNDS AND USES AS ANTICANCER AGENTS” (priority 2010, published 2011).

A short description of series [1]: Body weight and animal number of carrier mice, A549 xenograft test. The series is classed as in vivo, BALB/c immunodeficient nude mice. The text has this:
To evaluate the in vivo anticancer efficacy of COMPOUND O, A549 human non-small cell lung cancer xenograft models in immunodeficient nude mice was used. The cell line and mice were maintained in the Pharmacology Lab of ACEA Bio (Hangzhou) CO., Ltd. The BALB/c immunodeficient nude mice were purchased from Shanghai SLAC Laboratory Animal, certification number: SCXKA (Shanghai) 2007-0005. The mouse weight was between 21±1 g. Only female mice were used in this study. The numbers of animals tested were as follow: 7-8 for each dose group, 6 for positive control group and 7 for negative control group.
Test Control. For negative control, each mouse was administered orally with the solvent only having the same volume and same concentration as those used in COMPOUND O test, 120 mg/kg once every other day (qod) for 25 days. For positive control, an oral anticancer compound, Etoposide was administered orally at 30 mg/kg qod for 25 days.
Preparation an Administration of Test Compounds. COMPOUND O was dissolved in 25% phospholipid (S75) and 75% polyvinylpyrrolidone (PL-PVP) then further diluted to 8 mg/ml in 0.9% NaCl aqueous solution. Each mouse was administered orally with the compound solution. Different dosages of COMPOUND O (120 mg/kg qod and 160 mg/kg q2*2 (dosing for 2 consecutive days then off for 2 consecutive days) were used in the study.
All used materials including animal food, animal cage, supporting materials and apparatus contacted by animals, were high-pressure sterilized. Nude mice were maintained in laminar flow shelves under SPF condition. After tumor transplantation, mouse weight and tumor size in each compound dosage group were dynamically monitored and plotted. The tumor size was determined by measuring the major axis (a) and minor axis (b) of the tumor, and tumor volume was calculated according to the formula (2) in Example 1.

Series [2] has as its system tubulin (colchicine-binding site). Put plainly: Spin column assay with [^3H]colchicine. To be noted: tubulin with [^3H]colchicine and unlabeled competitor, 37° C. 1 h. Here is the method: Spin column assay. […] The reaction mixtures were incubated at 37° C. for 1 h. The samples were loaded onto Illustra™ MicroSpin™ G-50 columns (GE Healthcare) previously equilibrated with the buffer solution. The columns were placed into 1.5-ml tubes and spun at 750 g for 2 min at room temperature, and radioactivity in the flow-through was analyzed by a scintillation counter.

A further series concerns A549 cells. Kind of series: Cell-cycle distribution by flow cytometry. Format: cell-based, human. To be noted: 37 nM, 24 hours, vs DMSO only. Here is the method:
In addition, we have also tested the effect of COMPOUND O on cell-cycle using flow Cytometry. Briefly, A549 cells were seeded at a density of 400,000 cells/well in 6-well tissue culture plates. Approximately 24 hours later the cells were treated with 37 nM COMPOUND O and allowed to further incubate for 24 hours. The cells were washed in PBS, trypsinized, counted and fixed in ice-cold 70% methanol and stored at 4° C. The cells were washed with PBS, stained with propidium iodide and kept on ice until flow Cytometry analysis.
On the technique in general: In flow cytometry, cells or beads pass a laser one at a time.

The next series relates to human cancer cell lines. Kind of series: RT-CES / xCelligence profiling over the panel of cell lines. The series is classed as cell-based. The text has this: The biological activity of compounds disclosed herein was monitored and profiled using the Real-Time Cell Electronic Sensing (RT-CES®) system from ACEA Biosciences, Inc. The RT-CES system utilizes cell-substrate impedance technology to monitor cellular behavior inside tissue culture wells in a microtiter plate format. The technology features in the integration of molecular and cell biology with microelectronics and is based on the electronic detection of biological assay process. […]
For measurement of cell-substrate or cell-electrode impedance using RT-CES technology, microelectrodes having appropriate geometries are fabricated onto the bottom surfaces of microtiter plate or similar device, facing into the wells. […] When there are changes to the biological status of the cells analogue electronic readout signals are measured automatically and in real time, and are converted to digital signals for processing and for analysis. In a RT-CES system, a cell index (arbitrary representation of change in impedance) is automatically derived and provided based on measured electrode impedance values. […]
To quantify cell status based on the measured cell-electrode impedance, a parameter termed Cell Index is derived. Cell Index is a quantitative measure of the status of the cells in an electrode-containing well. […]

Where a name gives a salt, the structure may show the parent alone.

Take `COc1cc([C@@H]2c3cc4c(cc3[C@@H](O[C@@H]3O[C@@H]5CO[C@@H](C)O[C@H]5[C@H](O)[C@H]3O)[C@H]3COC(=O)[C@H]23)OCO4)cc(OC)c1O` [Etoposide, reference compound]: in series [1] (30 mg/kg ig × 13 qod), the “Animal weight (g) Beginning” value is recorded as 21.30 g, the “Animal weight (g) end” value amounted to 18.18 g, the “Body weight of mice (g) 1 day” value came to 21.30 ± 0.70 g and the “Body weight of mice (g) 4 day” value is recorded as 19.38 ± 2.22 g. In series [1] (30 mg/kg ig × 13 qod), the “Body weight of mice (g) 8 day” value is listed as 20.53 ± 1.26 g, the “Body weight of mice (g) 11 day” value is reported as 19.62 ± 1.15 g, the “Body weight of mice (g) 15 day” value is recorded as 19.63 ± 1.63 g and the “Body weight of mice (g) 18 day” value is reported as 19.48 ± 2.01 g. In addition, in series [1] (30 mg/kg ig × 13 qod), the “Body weight of mice (g) 22 day” value stood at 19.10 ± 2.57 g and the “Body weight of mice (g) 25 day” value turned out to be 18.18 ± 1.86 g. In addition, in series [1] (30 mg/kg ig × 13 qod, 6 at beginning), the “Animal No. end” value is 6/6.
In the case of `CCc1ccc(Nc2nc(-c3c(C)nc4sccn34)cs2)cc1` [COMPOUND O, 2-(4-ethylphenyl)amino-4-(6-methylimidazo[2,1-b]thiazol-5-yl)-thiazole monohydrobromide], the “amount of [^3H]colchicine in the flow-through” value in series [2] is “reduced the amount of [^3H]colchicine in the flow-through in a concentration-dependent manner”. Also, the “cell population at G2/M phase” value in the series with A549 cells is given as “increased significantly”. Further, in the series on human cancer cell lines (all tested cancer cell lines), the “IC50 towards all tested cancer cell lines” value is “low nM range”. Further, the “effect on the proliferation of the cancer cell lines” value in the series on human cancer cell lines (cell lines listed in b189 (FIGS. 4-24)) was “exhibited inhibitory effect”. Further, in series [1] (120 mg/kg ig × 14 qod), the “Animal weight (g) Beginning” value is 20.77 g, the “Animal weight (g) end” value was determined as 16.94 g, the “Body weight of mice (g) 1 day” value was determined as 20.77 ± 0.68 g and the “Body weight of mice (g) 4 day” value is given as 20.27 ± 0.83 g. In series [1] (120 mg/kg ig × 14 qod), the “Body weight of mice (g) 8 day” value turned out to be 19.57 ± 1.09 g, the “Body weight of mice (g) 11 day” value turned out to be 18.20 ± 0.59 g, the “Body weight of mice (g) 15 day” value stood at 17.90 ± 0.61 g and the “Body weight of mice (g) 18 day” value is on record as 17.90 ± 1.09 g. Besides, in series [1] (120 mg/kg ig × 14 qod), the “Body weight of mice (g) 22 day” value amounted to 17.21 ± 1.20 g and the “Body weight of mice (g) 25 day” value is listed as 17.00 ± 1.29 g. Also, the “Animal No. end” value in series [1] (120 mg/kg ig × 14 qod, 7 at beginning) is 7/7. Moreover, in series [1] (160 mg/kg ig × 11 q2*2), the “Animal weight (g) Beginning” value came to 21.69 g, the “Animal weight (g) end” value turned out to be 17.97 g, the “Body weight of mice (g) 1 day” value was determined as 21.69 ± 0.66 g and the “Body weight of mice (g) 4 day” value worked out at 21.20 ± 0.79 g. Moreover, in series [1] (160 mg/kg ig × 11 q2*2), the “Body weight of mice (g) 8 day” value amounted to 19.00 ± 1.48 g, the “Body weight of mice (g) 11 day” value came out at 17.78 ± 2.11 g, the “Body weight of mice (g) 15 day” value amounted to 17.43 ± 1.86 g and the “Body weight of mice (g) 18 day” value stood at 18.43 ± 0.90 g. In addition, in series [1] (160 mg/kg ig × 11 q2*2), the “Body weight of mice (g) 22 day” value turned out to be 18.70 ± 1.04 g and the “Body weight of mice (g) 25 day” value was 17.97 ± 0.93 g. For the same compound, the “Animal No. end” value in series [1] (160 mg/kg ig × 11 q2*2, 8 at beginning) is 8/3.
